Measured values published in US20100286229A1, “Modulation of Androgen Receptor for Treatment of Prostate Cancer” (priority 2005, published 2010).
Entries after “also recorded” stand apart in the source; their conditions may differ.

Legend:
Assay type in all cases: cell-based, human
[1] = tested on: CaP cells expressing endogenous AR; test: Growth after retroviral anti-AR shRNA transduction and hygromycin selection, CaP cells expressing endogenous AR; settings: retroviral vector, hygromycin selection; for growth of CaP cells expressing endogenous AR: all tested CaP cells, control anti-GFP
Description: (§1) We confirmed that inhibition of AR signaling is growth suppressive for androgen-insensitive versions of CaP (FIG. 5). Based on what is known from clinical oncology and AR mutation databases, we hypothesized that complete inhibition of AR function would be deleterious for both androgen-dependent and androgen refractory prostate cancer cells since CaP cells very rarely loose AR signaling during progression. To estimate the dependency of prostate cancer cells on the expression of AR, we transduced them with retroviral vector expressing anti-AR siRNA with subsequent selection on hygromycin. Control cells were transduced with anti-GFP siRNA vector. Transduction efficiency was estimated in AR-negative cells, DU145.
We also estimated the dependency of prostate cancer cells on the expression of AR by transducing cells with a retroviral vector expressing anti-AR shRNA, followed by selection on hygromycin (FIG. 12). Control cells were transduced with anti-GFP shRNA vector; transduction efficiency was estimated on AR negative cells (DU145) transduced with the same viruses.
For the experiments in FIG. 12, retroviral packaging and transduction were performed as follows. Briefly, Ampho cells (Clontech) were transfected with retroviral expression vector. Medium with virus was collected at 48 h and immediately transferred onto the target cells. 8 μg/ml of polybrene (Sigma) was added to transduced cells. 24 h later, the medium was changed with fresh medium containing the appropriate antibiotic for selecting transduced cells. 10-14 days later, after complete death of control untransduced cells, the number of colonies was quantified, or cells were used for further experiments. Retroviral shRNA vectors were generated by inserting the H1 promoter and a cassette for cloning of shRNA into the right LTR of pLPCHygro plasmid (Clontech).
For the experiment in FIG. 12B, the number of colonies on each plate was counted and divided by number of colonies of AR-negative DU145 cells. The number of colonies of cells transduced with shRNA against GFP was set as 1. DU145 cells were obtained from ATCC.

AR mRNA [2] = test: ARE-Luc reporter cotransfection with anti-AR shRNA constructs; settings: for ARE-Luc reporter activity: C4-2 cells, control shRNAs against GFP or FasL; for ARE-Luc reporter activity on endogenous AR: LNCaP cells, 48 h, control shGFP, shFasL
Description: Based on what was known from clinical oncology and AR mutation databases we hypothesized that complete inhibition of AR function would be toxic for both androgen-dependent and androgen-refractory prostate cancer cells, because prostate cancer cells very rarely lose AR signaling during cancer progression. To completely block AR activity in these cells we used an RNAi approach (FIG. 11). We synthesized several shRNA constructs targeting different portions of AR mRNA using a loop model (see Example 4 above).
Reporter assays were performed by transiently transfecting cells with pARE-Luc plasmid and pcDNA-3.1 hygro plasmids (empty or AR), or plasmids with shRNAs in different proportions. Transfection efficiency was normalized by citransfection of pCMV-LacZ plasmid or pEGFP-mito (Clontech). Reporter activity was measured using a Luciferase Assay System (Promega) at 48 h.

LNCaP cells = test: Growth after retroviral anti-AR shRNA transduction and hygromycin selection, LNCaP; settings: retroviral vector, hygromycin selection, control anti-GFP
Description: as §1
(§2) We also estimated the dependency of prostate cancer cells on the expression of AR by transducing cells with a retroviral vector expressing anti-AR shRNA, followed by selection on hygromycin (FIG. 12). […]
(§3) For the experiments in FIG. 12, retroviral packaging and transduction were performed as follows. […] 10-14 days later, after complete death of control untransduced cells, the number of colonies was quantified, or cells were used for further experiments. […]
(§4) For the experiment in FIG. 12B, the number of colonies on each plate was counted and divided by number of colonies of AR-negative DU145 cells. […]

C4-2 cells = test: Growth after retroviral anti-AR shRNA transduction and hygromycin selection, C4-2; settings: retroviral vector, hygromycin selection, control anti-GFP
Description: as §1, §2, §3, §4

proteasomes = test: AR protein level in HeLa cell variants treated with proteasome inhibitor PS341
AR [3] = test: AR protein level in cells transduced with AR-lentivirus, CSS medium with or without DHT (Western blotting); settings: DHT-containing media vs CSS without DHT
Procedure: (§5) Cells were plated in 6 well plates at 10^5/well. The next day, cells were transduced with concentrated GFP or AR lentiviruses, yielding 50-100% transduction efficiency. […] The medium was changed every 48 h. Cells were collected for Western blotting and luciferase assays at different time points or fixed and stained with methylene blue on day 8 after transduction.
(§6) The growth of cells overexpressing AR, cultured in CSS with no DHT, was not different from GFP expressing cells. Thus, this growth reflects the general sensitivity of certain type of cells to the presence of steroids in medium (FIG. 13A).

Hela cells = test: Growth of AR-negative Hela cells with DHT (data not shown)
CWR22R cells = test: Cell growth by methylene blue staining in CSS medium with DHT, CWR22R; settings: 10 nM DHT
p21 = p21 protein level in lysates of LNCaP cells treated with DHT; settings: 1 nM and 10 nM DHT compared to 0 nM, 0.1 nm DHT or FBS
Description: Thus increased activity of AR due to its overexpression or hyper-stimulation with ligand inhibits cell growth, possibly due to induction of p21.

AR [4] = test: ARE-Luc (AR-dependent luciferase) reporter activity in CaP cells in CSS medium with DHT
AR overexpressing cells = test: Growth of cells transduced with AR lentivirus in CSS with or without DHT; settings: 0.3 nM DHT
Procedure: as §5, §6

endogenous AR = test: Knock down of endogenous AR in CaP cells infected with lentiviral siAR6 and ARΔLBD; settings: simultaneous infection with siAR6 and ARΔLBD lentiviral vectors
Description: To generate completely ligand independent CaP cells, we simultaneously infected cells with lentiviral vectors expressing siAR6 and ARΔLBD.

AR mRNA [5] = test: ARE-Luc activity with siRNAs against translated and untranslated regions of AR mRNA; settings: C4-2 cells, endogenous AR
Description: We next eliminated expression of the endogenous ligand-dependent AR in a way that would not affect the expression of the ARΔLBD mutant. To achieve this, we generated a series of lentiviral vectors expressing siRNA's against untranslated regions of AR mRNA that are missing in the generated ARΔLBD-expressing constructs. We tested their activity in C4-2 prostate cancer cells that have endogenous AR and in H1299 cells expressing only exogenous AR from the transduced construct. While all siRNA's against translated and untranslated regions of AR were active in inhibition of ARE-Luc activity in C4-2 cells, only siRNA's against translated regions were active in H1299 cells (FIG. 6).

Molecule: AR2: siRNA/shRNA against AR, sequence GCTGCTCCGCTGACCTTAA, SEQ ID NO 4, target 1642-1660 (listed as DNA, chemistry not given here)
- growth of CaP cells expressing endogenous AR [1]: no inhibitory activity
- ARE-Luc reporter activity (AR mRNA [2]): inhibit ARE-Luc reporter activity
- ARE-Luc reporter activity on endogenous AR (AR mRNA [2]): inhibit ARE-Luc reporter activity
- ARE-Luc reporter activity on endogenous AR (AR mRNA [2]; listed as shAR2): did not completely block AR transcription

Molecule: AR1: siRNA/shRNA against AR, sequence GCTCAAGGATGGAAGTGCA, SEQ ID NO 3, target 1108-1126 (listed as DNA, chemistry not given here)
- cell growth (LNCaP cells): inhibited the growth
- growth of CaP cells expressing endogenous AR [1]: growth inhibitory effect; also recorded: inhibits growth
- cell growth (C4-2 cells): inhibited the growth
- ARE-Luc reporter activity (AR mRNA [2]): inhibit ARE-Luc reporter activity
- ARE-Luc reporter activity on endogenous AR (AR mRNA [2]): inhibit ARE-Luc reporter activity
- ARE-Luc reporter activity on endogenous AR (AR mRNA [2]; listed as shAR1): maximal activity

Molecule: CC(C)C[C@H](NC(=O)[C@H](Cc1ccccc1)NC(=O)c1cnccn1)B(O)O [PS341]
- ARΔLBD protein level (proteasomes; HeLa cells with ARΔLBD): remained unchanged
- wtAR protein level (proteasomes; HeLa cells with wtAR): increased; also recorded: accumulation of wild type AR protein

Molecule: C[C@]12CCC(=O)C[C@@H]1CC[C@@H]1[C@@H]2CC[C@]2(C)[C@@H](O)CC[C@@H]12 [DHT, dehydrotestosterone]
- AR levels in cells transduced with AR-lentivirus (AR [3]): reduced AR levels to those observed prior transduction
- growth in response to DHT (Hela cells): not affected
- growth at high doses of DHT (CWR22R cells): minor growth suppressing effect
- level of p21 (p21): higher
- reporter induction by DHT (AR [4]; CWR22R and 22Rv1 cells): up to 3.5 fold
- ARE-Luc reporter activation by DHT (AR [4]; CWR22R cells with shAR and ARDLBD): do not respond
- reporter response to addition of DHT (AR [4]; LNCaP, C4-2 and CWR22R cells, CSS containing 0-10 nm DHT): reporter activation
- growth of AR overexpressing cells compared to GFP expressing control (AR overexpressing cells): suppression of growth

Molecule: AR3: siRNA/shRNA against AR, sequence TCTCTGTGCAAGTGCCCAA, SEQ ID NO 5, target 3814-3832 (listed as DNA, chemistry not given here)
- growth of CaP cells expressing endogenous AR [1]: no inhibitory activity
- growth-inducing property on AR expressing CaP cells [1]: some growth-inducing property
- ARE-Luc reporter activity (AR mRNA [2]): inhibit ARE-Luc reporter activity
- ARE-Luc reporter activity on endogenous AR (AR mRNA [2]): inhibit ARE-Luc reporter activity
- ARE-Luc reporter activity on endogenous AR (AR mRNA [2]; listed as shAR3): did not completely block AR transcription

Molecule: AR6: siRNA against untranslated region of AR mRNA, sequence GTCAGGTCTTCAGTAGCCA, SEQ ID NO 6, target 688-706 (listed as DNA, chemistry not given here)
- knock down of endogenous AR (endogenous AR): nearly complete knock down of endogenous AR
- inhibition of ARE-Luc activity (AR mRNA [5]): most effective
